Assay [1] relates to H1299 (lung). The experiment in a line: In vitro cytotoxic activity MTT assay, H1299. The note with it: Homo sapiens, NCI-H1299, 96 hours exposure, read-out: IC50, 50% inhibition of cell proliferation. The format is cell-based. How it is done: (§1) Compounds 1-16 were screened for their in vitro cytotoxic activity utilizing a 3-(4,5-dimethyl-thiazol-2-yl)-2,5-diphenyltetrazolium bromide (MTT) assay against selected cancer human cell lines consisting of PC3 (prostate), HCT116 (colon), A375 (melanoma), H1299 (lung), MIAPaCa-2 (pancreas), HL60 (leukemia), MCF7 (breast), MDA-MB-231 (breast) (T. Mosmann, J. Immunol. Meth., 1983, 65, 55-63). The cells were cultured at 37° C. in RMPI1640 medium supplemented with 10% fetal bovine serum, 50 IU/mL penicillin, and 50 μg/mL streptomycin in a 5% CO2 incubator. All cells were sub-cultured 3 times/week by trypsinisation. Viable cells were seeded and allowed to adhere for 12 h before a test drug was added in 96-well plates at an initial density of 1.0×10^5 cells/mL. Tumor cell lines were separately exposed to various concentrations of the tested compounds followed by incubation at a temperature of 37° C. during 96 h inside a medium of fresh RMPI 1640. Cells were subsequently incubated at 37° C. using MTT at 0.5 mg/mL during 4 h. After removal of supernatant, formazan crystals were dissolved in isopropanol and the optical density was measured at 570 nm. CX-4945 was used as a positive control.
On the technique in general: Formazan colour is commonly taken as a measure of viable cells.

For assay [2], the system named is MDA-MB-231 (breast). The experiment in a line: In vitro cytotoxic activity MTT assay, MDA-MB-231. The note with it: Homo sapiens, 96 hours exposure, read-out: IC50, 50% inhibition of cell proliferation. The assay is classed as cell-based. The method, then:
as §1

Assay [3] concerns HL60 (leukemia). The assay can be described thus: In vitro cytotoxic activity MTT assay, HL60. The assay is classed as cell-based. The note with it: Homo sapiens, HL-60, 96 hours exposure, read-out: IC50, 50% inhibition of cell proliferation. How it is done:
as §1

The test system of assay [4] is HCT116 (colon). The experiment in a line: In vitro cytotoxic activity MTT assay, HCT116. The assay is classed as cell-based. Particulars: Homo sapiens, HCT-116, 96 hours exposure, read-out: IC50, 50% inhibition of cell proliferation. The method, then:
as §1

The test system of assay [5] is MCF7 (breast). The assay can be described thus: In vitro cytotoxic activity MTT assay, MCF7. The note with it: Homo sapiens, 96 hours exposure, read-out: IC50, 50% inhibition of cell proliferation. The assay is classed as cell-based. The method, then: as §1
Assay [6] has as its system A375 (melanoma). The experiment in a line: In vitro cytotoxic activity MTT assay, A375. The format is cell-based. The note with it: Homo sapiens, A-375, 96 hours exposure, read-out: IC50, 50% inhibition of cell proliferation. The method, then: as §1
The target of assay [7] is T1, recombinant human CK2 (RRββ-holoenzyme) (Homo sapiens, UniProt P68400).
T1 construct: purchased Millipore
T1 sequence (P68400 whole entry): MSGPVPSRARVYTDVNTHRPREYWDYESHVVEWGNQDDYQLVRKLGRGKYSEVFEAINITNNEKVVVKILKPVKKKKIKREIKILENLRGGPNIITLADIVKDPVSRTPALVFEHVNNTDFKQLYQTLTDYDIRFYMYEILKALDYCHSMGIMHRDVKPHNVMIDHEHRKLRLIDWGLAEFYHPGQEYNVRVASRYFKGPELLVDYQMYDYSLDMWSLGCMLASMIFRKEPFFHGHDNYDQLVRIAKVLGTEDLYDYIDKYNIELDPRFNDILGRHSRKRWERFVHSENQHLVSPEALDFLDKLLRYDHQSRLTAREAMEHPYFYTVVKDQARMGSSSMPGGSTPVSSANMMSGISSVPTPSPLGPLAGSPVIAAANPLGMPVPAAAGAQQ
T1 sequence (P67870 whole entry partner): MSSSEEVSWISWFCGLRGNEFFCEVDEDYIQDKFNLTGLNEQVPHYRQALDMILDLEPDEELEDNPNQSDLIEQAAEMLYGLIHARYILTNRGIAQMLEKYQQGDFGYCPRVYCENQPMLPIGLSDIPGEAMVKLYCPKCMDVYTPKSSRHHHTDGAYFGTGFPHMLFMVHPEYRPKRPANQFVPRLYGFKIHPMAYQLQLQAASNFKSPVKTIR
The assay can be described thus: CK2 Kinase Assay (33P-ATP, filter plate). The assay is classed as biochemical. Particulars: final ATP concentration 15 μM, 10 min at 30° C.; read-out: protein kinase CK2 IC50. The method, then:
CK2 Kinase Assay was conducted using the protocol as described in Pierre F. et al; J. Med. Chem. 2011, 54, 635-654. The tested compounds in aqueous solution were added at a volume of 10 μL to a reaction mixture comprising 10 μL of assay dilution buffer (ADB; 20 mM MOPS, pH 7.2, 25 mM β-glycerol phosphate, 5 mM EGTA, 1 mM sodium orthovanadate, and 1 mM dithiothreitol), 10 μL of substrate peptide (RRRDDDSDDD, dissolved in ADB at a concentration of 1 mM), 10 μL of recombinant human CK2 (RRββ-holoenzyme, 25 ng dissolved in ADB; Millipore). Reactions were initiated by the addition of 10 μL of ATP solution (90% 75 mMMgCl2, 75 μM ATP (final ATP concentration: 15 μM) dissolved in ADB; 10% [γ-33P] ATP (stock 1mCi/100 μL; 3000 Ci/mmol (Perkin-Elmer) and maintained for 10 min at 30° C. The reactions were quenched with 100 μL of 0.75% phosphoric acid and then transferred to and filtered through a phosphor cellulose filter plate (Millipore). After washing each well five times with 0.75% phosphoric acid, the plate was dried under vacuum for 5 min and, following the addition of 15 μL of scintillation fluid to each well, the residual radioactivity was measured using a Wallac […]. The IC50 values were derived from eight concentrations of test inhibitors.

Assay [8] concerns PC3 (prostate). The assay can be described thus: In vitro cytotoxic activity MTT assay, PC3. The format is cell-based. Particulars: Homo sapiens, 96 hours exposure, read-out: IC50, 50% inhibition of cell proliferation. The method, then: as §1
For assay [9], the system named is MIAPaCa-2 (pancreas). The experiment in a line: In vitro cytotoxic activity MTT assay, MIAPaCa-2. The format is cell-based. Particulars: Homo sapiens, MIA PaCa-2, 96 hours exposure, read-out: IC50, 50% inhibition of cell proliferation. How it is done: as §1

In the case of `O=C(O)c1cc2c(Nc3cccc(Cl)c3)nc3cnccc3c2[nH]1` [Example 1, 4-((3-chlorophenyl)amino)-1H-pyrrolo[3,2-c][1,7]naphthyridine-2-carboxylic acid], the IC50 in assay [1] came out at 1.6 µM; in assay [2], 3.5 µM; in assay [3], 2 µM; in assay [4], 1.1 µM; in assay [5], 3.9 µM; in assay [6], 3.2 µM. For the same compound, the IC50 in assay [7] is 0.031 µM; in assay [8], 2.3 µM; in assay [9] it was 1.4 µM.

Source of the values: US11884669B1, “Pyrrolo[3,2-c][1,7]naphthyridine-2-carboxylic acid compounds as CK2 inhibitors” (KING FAISAL UNIVERSITY, priority 2023, dated 2024).
